Four compounds from patent US20070160554A1, “Acyl ribonucleosides and acyl deoxyribonucleosides, compositions of, and methods of making same” (COGNIS IP MANAGEMENT GMBH, priority 2003, published 2007) can be followed below.

In data set [1] the test system is Melanocytes (B16 cell line). Kind of data set: Inhibition of melanin synthesis in B16 melanocytes (melanin by optical density at 475 nm, cellular proteins by Bradford). The class given is cell-based, mouse. The following applies: for effect on the rate of released melanin / inhibition of melanin synthesis: B16 melanocytes, at concentrations not toxic to human fibroblasts; for Rate of Melanin / Rate of cellular proteins: B16, 3 days. The text has this:
Melanin is the pigment responsible for the colour of skin and hairs. Melanin synthesis takes place in specific organelles so called melanosomes in human melanocytes located in the basal layer of the human epidermis. This synthesis begins by oxidation of tyrosine to DOPA (dihydroxy-phenyl-alanine) by tyrosinase and then DOPA polymerises to melanin which is stored in melanosomes.
Melanocytes (B16 cell line: B16 is the name of the mouse melanoma cells used in this test.) were inoculated in standard cell culture medium of foetal calf serum (FCS). […] Uridine palmitate and ulidine stearate were added to the culture medium starting from a stock solution at 1% (w/v) in DMSO. After an incubation of 3 days, the number of viable cells was determined by the evaluation of the levels of cellularproteins (Bradford's method) and the level of synthesized melanin was measured by recording the optical density at 475 nm of cell's homogenate. The results are expressed in table 4.

In data set [2] the test system is human fibroblasts. Nature of the data set: Non-toxicity on quiescent human fibroblasts (second experiment: DNA, ATP, proteins, GSH/proteins). The class given is cell-based. The following applies: for ATP / DNA / GSH/proteins / Proteins: quiescent fibroblasts, 3 days; for modification of growth, energetic metabolism and protein metabolism of the fibroblasts: human fibroblasts in vitro. Here is the method:
Uridine palmitate and uridine stearate were added in the culture medium starting from a stock solution at 1% (w/v) in DMSO. After an incubation of 3 days the number of viable cells was determined by evaluation of the levels of cellular DNA (fluorescent probe), ATP, proteins (Bradford's method) and the rate of cellular GSH (GSH is glutathione) normalised to the level of cellular proteins.

Data set [3] has as its system human fibroblasts. The conditions noted are these: for Proteins (level of cellular proteins) / LD50: 3 days; for LD50: human. Here is the method:
In a first experiment, human fibroblasts were inoculated in a standard cell culture medium of foetal calf serum (or FCS). After an incubation of 1 day at 37° C. under an atmosphere of air, enriched to a carbon dioxide content of 5%, the growth medium was exchanged for a standard medium with a range of concentrations of uridine, uridine palmitate and uridine stearate.

Structures are written as SMILES. Like-named read-outs stand apart in the source and are kept apart here.

In the case of `O=c1ccn([C@@H]2O[C@H](CO)[C@@H](O)[C@H]2O)c(=O)[nH]1` [Uridine, uridine, reference compound], the “effect on the rate of released melanin / inhibition of melanin synthesis” value in data set [1] is reported as “no or only a very poor effect”. In data set [1] (dose 0.03 % w/v), the “Rate of Melanin” value came out at 92 % against control and the “Rate of cellular proteins” value is 94 % against control. Also, in data set [1] (dose 0.1 % w/v), the “Rate of Melanin” value was 92 % against control and the “Rate of cellular proteins” value is 97 % against control. Besides, in data set [2] (dose 0,01 % w/v), the ATP came out at 100 %/control, the DNA is 103 %/control, the GSH/proteins worked out at 107 %/control and the Proteins worked out at 100 %/control. Also, in data set [2] (dose 0,03 % w/v), the ATP is on record as 89 %/control, the DNA came out at 94 %/control, the GSH/proteins was 102 %/control and the Proteins is 104 %/control. The “Proteins (level of cellular proteins)” value in data set [3] (dose 0.03 % w/v) was determined as 104 %/control. In addition, the “Proteins (level of cellular proteins)” value in data set [3] (dose 0.1 % w/v) came to 99 %/control.

Consider `CCCCCCCCCCCCCCCCCC(=O)O[C@@H]1[C@H](O)[C@@H](CO)O[C@H]1n1ccc(=O)[nH]c1=O` [Mono-O-stearoyl uridine, Mono-O-Stearoyl Uridine], for which the “effect on the rate of released melanin / inhibition of melanin synthesis” value in data set [1] is on record as “strongly decreased the rate of released melanin”. Further, in data set [1] (dose 0.001 % w/v), the “Rate of Melanin” value came out at 84 % against control and the “Rate of cellular proteins” value came to 98 % against control. Besides, in data set [1] (dose 0.003 % w/v), the “Rate of Melanin” value was found to be 65 % against control and the “Rate of cellular proteins” value came out at 92 % against control. Further, in data set [1] (dose 0.01 % w/v), the “Rate of Melanin” value is on record as 19 % against control and the “Rate of cellular proteins” value turned out to be 99 % against control. In data set [2] (dose 0,0015 % w/v), the ATP was found to be 91 %/control, the DNA is listed as 94 %/control, the GSH/proteins turned out to be 98 %/control and the Proteins was 96 %/control. In data set [2] (dose 0,005 % w/v), this compound showed an ATP of 92 %/control, a DNA of 100 %/control, a GSH/proteins of 135 %/control and a Proteins of 95 %/control. The “modification of growth, energetic metabolism and protein metabolism of the fibroblasts” value in data set [2] is given as “not modified the growth of the fibroblasts”. In addition, in data set [3], the “toxic effects on growing human fibroblasts cultured in vitro” value is given as “not shown any toxic effects” and the LD50 is on record as more than 0.01% w/v. The “Proteins (level of cellular proteins)” value in data set [3] (dose 0.0005 % w/v) is 90 %/control. For the same compound, the “Proteins (level of cellular proteins)” value in data set [3] (dose 0.0015 % w/v) was 87 %/control.

Take `CCCC(=O)OC[C@H]1O[C@@H](n2ccc(=O)[nH]c2=O)[C@H](OC(=O)CCC)[C@@H]1OC(=O)CCC` [Tri-O-Butyryl-Uridine, reference compound]: the “effect on the rate of released melanin / inhibition of melanin synthesis” value in data set [1] is reported as “no or only a very poor effect”. Also, the “Rate of Melanin” value in data set [1] (dose 0.001 % w/v) is 106 % against control; in data set [1] (dose 0.003 % w/v), 106 % against control; in data set [1] (dose 0.01 % w/v) it was 105 % against control. For the same compound, the entries for the “Rate of cellular proteins” value in data set [1] (dose 0.001 % w/v), in data set [1] (dose 0.003 % w/v) and in data set [1] (dose 0.01 % w/v) were 100 % against control, 106 % against control and 103 % against control, respectively.

Turning to `CCCCCCCCCCCCCCCC(=O)O[C@@H]1[C@H](O)[C@@H](CO)O[C@H]1n1ccc(=O)[nH]c1=O` [Mono-O-palmitoyl uridine, Mono-O-Palmitoyl Uridine], the “effect on the rate of released melanin / inhibition of melanin synthesis” value in data set [1] is “strongly decreased the rate of released melanin”. Further, in data set [1] (dose 0.001 % w/v), the “Rate of Melanin” value is 98 % against control and the “Rate of cellular proteins” value is listed as 100 % against control. In data set [1] (dose 0.003 % w/v), the “Rate of Melanin” value was 69 % against control and the “Rate of cellular proteins” value was found to be 95 % against control. Besides, in data set [1] (dose 0.01 % w/v), the “Rate of Melanin” value turned out to be 44 % against control and the “Rate of cellular proteins” value came to 110 % against control. Further, in data set [2] (dose 0,001 % w/v), the ATP was 111 %/control, the DNA was 92 %/control, the GSH/proteins is 103 %/control and the Proteins amounted to 98 %/control. In data set [2] (dose 0,003 % w/v), this compound yielded an ATP of 86 %/control, a DNA of 83 %/control, a GSH/proteins of 108 %/control and a Proteins of 91 %/control. In addition, the “modification of growth, energetic metabolism and protein metabolism of the fibroblasts” value in data set [2] is given as “not modified the growth of the fibroblasts”. Moreover, in data set [3], the “toxic effects on growing human fibroblasts cultured in vitro” value is reported as “not shown any toxic effects” and the LD50 is more than 0.01% w/v. Also, the “Proteins (level of cellular proteins)” value in data set [3] (dose 0.003 % w/v) came to 92 %/control. Moreover, the “Proteins (level of cellular proteins)” value in data set [3] (dose 0.01 % w/v) turned out to be 97 %/control.
